Measured values from patent US20200216316A1, “METHOD FOR THE MANUFACTURE OF CYCLODODECASULFUR” (EASTMAN CHEMICAL COMPANY, priority 2016, published 2020).

Experiments:
[1] = Thermal decomposition in p-xylene at 115° C. (sulfur content of supernatant by Uniquant); assay type: physicochemical; conditions: for Content of sulfur in the p-xylene solvent: 115° C.
Procedure: The purpose of this experiment was to determine the rate that polymeric sulfur thermally decomposes into cyclooctasulfur in p-xylene. Polymeric sulfur is essentially insoluble in p-xylene, except when the polymer decomposes into cyclooctasulfur. Thus, the sulfur content in the p-xylene is a measure of the amount of polymeric sulfur that has decomposed to cyclooctasulfur. In this experiment, 50.32 grams of p-xylene were added to a 100-milliliter jacketed glass vessels fitted with a circulating heating bath, cooling water condenser, magnetic stir bar and stir plate, and nitrogen purge. The p-xylene was heated to 115° C. and 2.03 grams of unoiled commercial crystalline polymeric sulfur (Crystex™) was added while stirring. Periodically samples of the supernatant liquid were withdrawn from the vessel via a heated fritted glass pipette (heated to the same temperature as the solution). These supernatant samples were analyzed by Uniquant to determine sulfur content. The sulfur content was used to calculate the amount of polymeric sulfur remaining undissolved and undecomposed to cyclooctasulfur. After 60 and 75 minutes at 115° C., about 85% and essentially 100% respectively, of the polymeric sulfur had been converted into cyclooctasulfur.
The equipment and procedure used in Example 22 for measurement of the decomposition of polymeric sulfur was used to measure the decomposition of cyclododecasulfur in para-xylene. Two grams of purified cyclododecasulfur (produced by a procedure in the fashion of Example 2) was heated and stirred in 50.0 grams of p-xylene in a 100-milliliter jacketed glass vessels fitted with a circulating heating bath, cooling water condenser, magnetic stir bar and stir plate, and nitrogen purge. After 60, 75, and 120 minutes at 115° C., the content of sulfur in the p-xylene solvent was found by Uniquant to be about 0.4 wt % in each case, similar to the solubility of cyclododecasulfur in p-xylene at 115° C. (see Example 21). Upon cooling of the p-xylene, filtration, and drying of the recovered solids overnight in a vacuum oven at room temperature and 0.067 MPa (absolute), greater than 97% of the cyclododecasulfur input weight of solids was recovered.

[2] = Solubility of sulfur species in p-xylene, chlorobenzene and carbon disulfide (sulfur content of equilibrated supernatant by Uniquant); assay type: physicochemical
Procedure: Fifty grams of p-xylene was added to each of three identical 100-milliliter jacketed glass vessels fitted with a circulating heating bath, cooling water condenser, magnetic stir bar and stir plate, and nitrogen purge. All vessels were heated to the desired temperature, and cyclooctasulfur, cyclododecasulfur (prepared as in Example 2), and unoiled commercial crystalline polymeric sulfur (Crystex™) was added in sufficient quantities to each of the glass vessels to allow undissolved solids to remain after dissolution and equilibration of the mixture. The equilibration period typically lasted 2 to 8 hours, during which the contents of the vessel were maintained at the desired temperature and stirred continuously. Upon equilibration, supernatant liquid was withdrawn from the vessels via a heated fritted glass pipette (heated to the same temperature as the solution). The supernatants were analyzed by Uniquant to determine sulfur content, indicating the solubility of the sulfur species at the vessel temperature. Similar experiments were conducted for carbon disulfide and chlorobenzene for each of the three solutes.

| SMILES | Input weight of solids recovered after heating ([1]; after 120 minutes at 115° C. in p-xylene, cooling, filtration and drying) | Fraction decomposed/converted to cyclooctasulfur ([1]; mixture of polymeric sulfur and cyclododecasulfur in p-xylene at 115° C. for two hours) | Content of sulfur in the p-xylene solvent ([1]; 60 minutes) | Content of sulfur in the p-xylene solvent ([1]; 75 minutes) | Content of sulfur in the p-xylene solvent ([1]; 120 minutes) | Solubility in weight % of solute in solvent ([2]; CS2, 22 ° C.) | Solubility in weight % of solute in solvent ([2]; CS2, 45 ° C.) | Solubility in weight % of solute in solvent ([2]; Cl-benzene, 45 ° C.) | Solubility in weight % of solute in solvent ([2]; Cl-benzene, 115 ° C.) | Solubility in weight % of solute in solvent ([2]; P-xylene, 45 ° C.) | Solubility in weight % of solute in solvent ([2]; P-xylene, 115 ° C.) | Solubility in weight % of solute in solvent ([2]; Cl-benzene, 22 ° C.) | Solubility in weight % of solute in solvent ([2]; P-xylene, 22 ° C.) |
| --- | --- | --- | --- | --- | --- | --- | --- | --- | --- | --- | --- | --- | --- |
| S1SSSSSSSSSSS1 [Cyclododecasulfur, cyclododecasulfur] | greater than 97% | less than 3% | about 0.4 wt % | about 0.4 wt % | about 0.4 wt % | 0.2 wt % | 0.5 wt % | 0.015 wt % | 0.44 wt % | <0.05 wt % | 0.4 wt % |  |  |
| S1SSSSSSS1 [Cyclooctasulfur, cyclooctasulfur, reference compound] |  |  |  |  |  | 32 wt % | 48 wt % | 6.2 wt % |  | 5.6 wt % |  | 2.4 wt % | 2.3 wt % |
